# Assay results as given in patent publication US5525627A, “Esters of acyl carnitines with long-chain aliphatic alcohols and pharmaceutical compositions containing same having antimycotic activity” (Sigma-Tau Industrie Farmaceutiche Riunite S.p.A., priority 1992, dated 1996).
# Legend:
# Mucor mucedo (ATCC 7941) = test: MIC for filamentous fungi; assay type: cell-based; details: ATCC7941, read-out: Minimal Inhibitory Concentration (MIC)
# Outline: (§1)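 Broth testing uses the yeast-like fungi procedure and the previous assay medium. Conidial inoculum of 5.0×10^4 CFU/ml comes from 72-hour Sabouraud agar cultures rinsed off with Sabouraud/Tween 80.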
# [1] = system: Aspergillus fumigatus (2/A); test: MIC for filamentous fungi; assay type: cell-based; details: read-out: Minimal Inhibitory Concentration (MIC)
# Outline: as §1
# C. albicans PG = test: Systemic experimental infection with Candida albicans in mice; assay type: in vivo, Candida albicans in mice (male CD1); details: for % Mortality / Dead/Total: 60 days follow-up; for MST (mean survival time): range of variation in brackets, footnote p ≤ 0.05 (MannWithney "U" test), mark lost
# Description: Male CD1 mice (C. River) aged 6 or 13 weeks were used (12-15 animals per group).
# The pathogenic strain of Candida utilized, i.e. C. albicans PG, was able, when inoculated intravenously, to cause multiple renal lesions and systemic dissemination, provoking death of the animals within 40 days from the challenge.
# A broth culture in Sabouraud broth is prepared from a 48-hour agar slant culture.
# After incubation for 48 hours at 37° C., the broth culture is first washed 3 times with sterile saline, then adjusted to a concentration of 2.0×10^6 cells/ml. Volumes of 0.25 ml of this suspension are i.v. injected into the animals, with a resulting infective dose approximately corresponding to DL100.
# ST 722 was administered per os following two different protocols:
# I) 100 mg/kg administered at +2, +12, +24, +36 and +48 hours (i.e. 5 administrations in two days) with respect to the challenge.
# II) 100 mg/kg administered twice daily on 6 consecutive days (i.e. 12 adimistrations) starting from day -2 to day +3 with respect to the day of inoculation (day 0).
# After the challenge, the animals were followed up for 60 days, and the percent mortality as well as the mean survival time (MST) were evaluated. The statistical significance of the results was evaluated by means of Fisher "exact test" and Mann-Withney "U" test, respectively.
# filamentous fungi = test: MIC / MFC for filamentous fungi, all strains; assay type: cell-based, Aspergillus, Fusarium, Mucor, Penicillium; details: versus susceptible strains; read-out: Mean MIC values
# Outline: as §1
# [2] = system: antibody-producer B lymphocytes (spleen); test: Test 1: primary antibody production (Jerne test) in spleen of SRBC immunized mice; assay type: in vivo, mice (male B6 D2F1)
# Description: Test 1: Evaluation of the "in vitro-ex vivo" effect of repeated oral administrations of ST 722 on the primary antibody production (Jerne test) in the spleen of SRBC (Sheep Red Blood Cells) immunized mice.
# Male B6 D2F1 mice (C. River) aged 8 weeks (6 animals each group) were utilized.
# The substance (ST 722) was administered per os at the dose of 100 mg/kg/day from day -2 through day +2 (immunization at day 0). The animals were immunized by intraperitoneal route with a concentration of 1.0×10^8 cells/mouse in 0.2 ml of sterile saline.
# Five days later, spleens to be submitted to teasing process were removed from the animals sacrificed by cervical dislocation. After standardization at 1.0×10^7 cells/ml. the splenocytes (0.1 ml) were mixed with warm agar-Hank's (2 ml) and 10% SRBC in PBS (0.2 ml) and seeded in Petri dishes (samples tested in triplicates) and incubated at 37° C. for 60 min.
# After addition of complement (2 ml of guinea pig serum diluted 1:10 in Tris buffer), samples were further incubated at 37° C. for 30 min. To block the haemolysis reaction, the Petri dishes were cooled at 4° C. and the haemolysis plaques were counted.
# The antibody response to SRBC is expressed as number of plaque forming cells (PFC) per 1.0×10^6 splenocytes as well as per spleen.
# [3] = system: Candida tropicalis (5705); test: MIC for yeast and yeast-like strains; assay type: cell-based; details: 48 hours, 35° C., read-out: Minimal Inhibitory Concentration (MIC)
# Outline: (§2)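 Antifungal activity is tested in microtiter plates in which equal volumes of diluted yeast suspension and compound solution are combined. Yeast Nitrogen Base with asparagine (0.15%), glucose (1.0%) and 0.165 M MOPS serves as the medium, and the final inoculum is about 5.0×10^4 CFU/ml.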
# Candida albicans (Ca 2) = test: MIC for yeast and yeast-like strains; assay type: cell-based; details: 48 hours, 35° C., read-out: Minimal Inhibitory Concentration (MIC)
# Outline: as §2
# Candida albicans (562) = test: MIC for yeast and yeast-like strains; assay type: cell-based; details: 48 hours, 35° C., read-out: Minimal Inhibitory Concentration (MIC)
# Outline: as §2
# [4] = system: Saccharomyces cerevisiae (ATCC 7752); test: MIC for yeast and yeast-like strains; assay type: cell-based; details: ATCC7752, 48 hours, 35° C., read-out: Minimal Inhibitory Concentration (MIC)
# Outline: as §2
# [5] = system: Torulopsis candida (D.S.); test: MIC for yeast and yeast-like strains; assay type: cell-based; details: Suzukiozyma candida; 48 hours, 35° C.; read-out: Minimal Inhibitory Concentration (MIC)
# Outline: as §2
# Candida albicans (A 54) = test: MIC for yeast and yeast-like strains; assay type: cell-based; details: 48 hours, 35° C., read-out: Minimal Inhibitory Concentration (MIC)
# Outline: as §2
# [6] = system: Cryptococcus neoformans (4711); test: MIC for yeast and yeast-like strains; assay type: cell-based; details: 48 hours, 35° C., read-out: Minimal Inhibitory Concentration (MIC)
# Outline: as §2
# Candida krusei (ISS 1) = test: MIC for yeast and yeast-like strains; assay type: cell-based; details: Pichia kudriavzevii; 48 hours, 35° C.; read-out: Minimal Inhibitory Concentration (MIC)
# Outline: as §2
# [7] = protocol I: 100 mg/kg per os at +2, +12, +24, +36, +48 hours
# [8] = protocol II: 100 mg/kg per os twice daily, day -2 to day +3
# [9] = 100 mg/kg/day per os, day -2 through day +2, x ± S.E.
compound,measurement,setting,value
"CCCCCCCCCCCOC(=O)C[C@H](C[N+](C)(C)C)OC(=O)CC(C)C [ST 722, isovaleryl-L-carnitine undecyl ester chloride]",MIC,Mucor mucedo (ATCC 7941),50 µg/mL
same,MIC,[1],12.5 µg/mL
same,protective effect,"C. albicans PG; protocol I and II, per os",only in terms of MST prolongation
same,% Mortality,C. albicans PG; [7],71.4%
same,Dead/Total,C. albicans PG; [7],10/14
same,MST (mean survival time),C. albicans PG; protocol I,37 (25-≥60) days
same,percent mortality,"C. albicans PG; protocol II, per os",completely unaffected
same,% Mortality,C. albicans PG; [8],71.4%
same,Dead/Total,C. albicans PG; [8],10/14
same,MST (mean survival time),C. albicans PG; protocol II,44 (32-≥60) days
same,MIC,filamentous fungi,16.4 µg/mL
same,PFC/10^6 cells,[2]; [9],261 ± 34 PFC/10^6 cells
same,PFC/spleen,[2]; [9],44440 ± 6087 PFC/spleen
same,PFC number after antigenic challenge,[2]; 5 consecutive days oral,did not cause a statistically significant modification in PFC number
same,MIC,[3],3.12 µg/mL
same,MIC,Candida albicans (Ca 2),1.56 µg/mL
same,MIC,Candida albicans (562),3.12 µg/mL
same,MIC,[4],3.12 µg/mL
same,MIC,[5],6.25 µg/mL
same,MIC,Candida albicans (A 54),3.12 µg/mL
same,MIC,[6],1.56 µg/mL
same,MIC,Candida krusei (ISS 1),3.12 µg/mL
